Reference: patent US11667651B2, “Aminopyridine derivatives as phosphatidylinositol phosphate kinase inhibitors” (HiberCell, Inc., priority 2017, dated 2023)

How the values were obtained:
Type in all cases: biochemical
PIP4K2A [1] = target: T1, PIP4K2A (Homo sapiens, UniProt P48426); experiment: Kinase Assay PIP4K2 A (Table 2); design: 4 nM PIP4K2A (full length protein, SignalChem); purchased SignalChem; conditions: compounds listed under IC50 bins
T1 sequence (P48426 1-406): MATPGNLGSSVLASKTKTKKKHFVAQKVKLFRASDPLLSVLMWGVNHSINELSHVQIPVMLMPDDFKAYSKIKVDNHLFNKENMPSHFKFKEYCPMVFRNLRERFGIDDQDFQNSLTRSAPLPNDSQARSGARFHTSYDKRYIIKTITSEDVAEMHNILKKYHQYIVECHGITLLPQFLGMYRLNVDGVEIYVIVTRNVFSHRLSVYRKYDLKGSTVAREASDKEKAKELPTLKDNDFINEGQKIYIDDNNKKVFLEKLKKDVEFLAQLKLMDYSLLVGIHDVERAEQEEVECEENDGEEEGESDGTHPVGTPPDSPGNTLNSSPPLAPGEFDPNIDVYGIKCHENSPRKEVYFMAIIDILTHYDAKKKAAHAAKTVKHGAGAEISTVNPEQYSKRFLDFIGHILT
Summary of the method: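 ADP-Glo luminescent read-out after 1 h room-temperature kinase reaction, started with 60 μM ATP solution following 15 min compound pre-incubation. Enzyme/substrate mix: 4 nM full-length PIP4K2A plus 100 μM PI(5)P diC8; buffer MOPS pH 7.2 with 25 mM MgCl2 and Tween 20. IC50 from 10-point, 3-fold titrations normalized to DMSO.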

PIP4K2A [2] = target: T1, PIP4K2A; experiment: ADP-glo kinase assay PIP4K 2A (Table 3); design: made in house; host or cells: E. coli; conditions: compounds listed under IC50 bins
Summary of the method: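 ADP-Glo luminescence detected ADP after 1 h RT reaction started by ATP (60 μM solution) on full-length PIP4K2A (4 nM in mix) and PI(5)P diC8 (100 μM in mix), preceded by 15 min enzyme-compound preincubation in MOPS pH 7.2/25 mM MgCl2. Percent inhibition versus DMSO over 10 concentrations fitted for IC50.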

PIP4K2B = target: T2, PIP4K2B (Homo sapiens, UniProt P78356); experiment: Trans-FI P kinase assay PIP4K2B (Table 4); conditions: compounds listed under IC50 bins; read-out: Trans-FI P kinase assays: PIP4K2B IC50
T2 construct: made in house; host or cells: E. coli
T2 sequence (P78356 1-416): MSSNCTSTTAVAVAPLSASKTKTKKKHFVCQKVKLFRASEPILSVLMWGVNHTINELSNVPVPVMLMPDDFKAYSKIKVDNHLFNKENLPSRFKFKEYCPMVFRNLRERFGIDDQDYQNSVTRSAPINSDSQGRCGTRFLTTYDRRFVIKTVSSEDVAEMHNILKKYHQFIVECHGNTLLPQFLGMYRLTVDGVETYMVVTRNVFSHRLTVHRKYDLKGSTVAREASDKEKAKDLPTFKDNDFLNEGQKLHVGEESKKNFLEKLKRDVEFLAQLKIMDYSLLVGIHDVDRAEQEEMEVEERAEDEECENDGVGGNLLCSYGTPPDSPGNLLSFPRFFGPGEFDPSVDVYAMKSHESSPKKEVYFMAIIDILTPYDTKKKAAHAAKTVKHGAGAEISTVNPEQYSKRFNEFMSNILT
Summary of the method: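 Transcreener FI detection (Ex 584/Em 623) of GDP, converted via calibration curve, gives IC50 from residual activity versus log concentration (highest 4.8 μM). Reaction: 80 μM PI5P plus DOPE carrier, 100 μM GTP, 5 nM GST-tagged enzyme, pH 7.3 HEPES with MgCl2 and 5% DMSO, 2 h after 1 h enzyme-compound preincubation at 27° C.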

| IC50 (PIP4K2A [1]) [nM] | IC50 (PIP4K2A [2]) [nM] | IC50 (PIP4K2B) [nM] | SMILES |
| --- | --- | --- | --- |
| 100 to 1000 | 100 to 1000 | 10 to 100 | COc1ncc(Nc2ccc(-c3ccc(N4CCCC4=O)cc3)cn2)cc1N(C)S(C)(=O)=O [Example 161, N-(2-methoxy-5-((5-(4-(2-oxopyrrolidin-1-yl)phenyl)pyridin-2-yl)amino)pyridin-3-yl)-N-methylmethanesulfonamide] |
| 10 to 100 | 10 to 100 | 10 to 100 | O=C1CCCN1c1ccc(-c2cnc(Nc3cnc4c(c3)N3C(=O)CC[C@H]3CO4)cn2)cc1 [Example 162, (S)-2-((5-(4-(2-oxopyrrolidin-1-yl)phenyl)pyrazin-2-yl)amino)-6,6a,7,8-tetrahydro-9H-pyrido[2,3-b]pyrrolo[1,2-d][1,4]oxazin-9-one] |
| 1 to 10 | 1 to 10 | 10 to 100 | O=C1CCCN1c1ccc(-c2ccc(Nc3cncc(N4CCN(Cc5cscn5)C4=O)c3)nc2)cc1 [Example 163, 1-(5-((5-(4-(2-oxopyrrolidin-1-yl)phenyl)pyridin-2-yl)amino)pyridin-3-yl)-3-(thiazol-4-ylmethyl)imidazolidin-2-one] |
| 1 to 10 | 1 to 10 | 10 to 100 | O=C1CCCN1c1ccc(-c2cnc(Nc3cncc(N4CCN(Cc5cscn5)C4=O)c3)cn2)cc1 [Example 164, 1-(5-((5-(4-(2-oxopyrrolidin-1-yl)phenyl)pyrazin-2-yl)amino)pyridin-3-yl)-3-(thiazol-4-ylmethyl)imidazolidin-2-one] |
| 10 to 100 | 10 to 100 | 10 to 100 | O=C1CCCN1c1ccc(-c2ccc(Nc3cncc(N4CCN(Cc5cocn5)C4=O)c3)nc2)cc1 [Example 165, 1-(oxazol-4-ylmethyl)-3-(5-((5-(4-(2-oxopyrrolidin-1-yl)phenyl)pyridin-2-yl)amino)pyridin-3-yl)imidazolidin-2-one] |
| 10 to 100 | 10 to 100 | 10 to 100 | O=C1CCCN1c1ccc(-c2ccc(Nc3cncc(N4CCN(Cc5cnco5)C4=O)c3)nc2)cc1 [Example 166, 1-(oxazol-5-ylmethyl)-3-(5-((5-(4-(2-oxopyrrolidin-1-yl)phenyl)pyridin-2-yl)amino)pyridin-3-yl)imidazolidin-2-one] |
| 1 to 10 | 10 to 100 | 10 to 100 | CN1CCN(c2cncc(Nc3ccc(-c4ccc(N5CCCC5=O)cc4)cn3)c2)S1(=O)=O [Example 174, 1-(4-(6-((5-(5-methyl-1,1-dioxido-1,2,5-thiadiazolidin-2-yl)pyridin-3-yl)amino)pyridin-3-yl)phenyl)pyrrolidin-2-one] |
| ≤ 1 | 1 to 10 | 1 to 10 | CC(C)c1cc(Nc2cnc3c(c2)N2C(=O)CC[C@H]2CO3)ncc1-c1ccc(N2CCCC2=O)cc1 [Example 177, (S)-2-((4-isopropyl-5-(4-(2-oxopyrrolidin-1-yl)phenyl)pyridin-2-yl)amino)-6,6a,7,8-tetrahydro-9H-pyrido[2,3-b]pyrrolo[1,2-d][1,4]oxazin-9-one] |
| 1 to 10 | 1 to 10 | 1 to 10 | O=C1CCCN1c1ccc(-c2cnc(Nc3cnc4c(c3)N3C(=O)CC[C@H]3CO4)cc2C2CC2)cc1 [Example 178, (S)-2-((4-cyclopropyl-5-(4-(2-oxopyrrolidin-1-yl)phenyl)pyridin-2-yl)amino)-6,6a,7,8-tetrahydro-9H-pyrido[2,3-b]pyrrolo[1,2-d][1,4]oxazin-9-one] |
| ≤ 1 | 1 to 10 | 1 to 10 | COc1cc(Nc2cnc3c(c2)N2C(=O)CC[C@H]2CO3)ncc1-c1ccc(N2CCCC2=O)cc1 [Example 179, (S)-2-((4-methoxy-5-(4-(2-oxopyrrolidin-1-yl)phenyl)pyridin-2-yl)amino)-6,6a,7,8-tetrahydro-9H-pyrido[2,3-b]pyrrolo[1,2-d][1,4]oxazin-9-one] |
| ≤ 1 | 1 to 10 | 10 to 100 | COc1cc(Nc2cnc3c(c2)N2C(=O)CC[C@H]2CO3)ncc1-c1ccc(N2CCCC2=O)c(F)c1 [Example 183, (S)-2-((5-(3-fluoro-4-(2-oxopyrrolidin-1-yl)phenyl)-4-methoxypyridin-2-yl)amino)-6,6a,7,8-tetrahydro-9H-pyrido[2,3-b]pyrrolo[1,2-d][1,4]oxazin-9-one] |
| 1 to 10 | 10 to 100 | 10 to 100 | Cc1nc(Nc2cnc3c(c2)N2C(=O)CC[C@H]2CO3)ccc1-c1ccc(N2CCCC2=O)cc1 [Example 190, (S)-2-((6-methyl-5-(4-(2-oxopyrrolidin-1-yl)phenyl)pyridin-2-yl)amino)-6,6a,7,8-tetrahydro-9H-pyrido[2,3-b]pyrrolo[1,2-d][1,4]oxazin-9-one] |
| 1 to 10 | 10 to 100 | 10 to 100 | O=C1CCCN1c1ccc(-c2ccc(Nc3cnc4c(c3)N3C(=O)CC[C@H]3CO4)nc2)c(F)c1 [Example 191, (S)-2-((5-(2-fluoro-4-(2-oxopyrrolidin-1-yl)phenyl)pyridin-2-yl)amino)-6,6a,7,8-tetrahydro-9H-pyrido[2,3-b]pyrrolo[1,2-d][1,4]oxazin-9-one] |
| 10 to 100 | 10 to 100 | 10 to 100 | Cc1cc(N2CCCC2=O)ccc1-c1ccc(Nc2cnc3c(c2)N2C(=O)CC[C@H]2CO3)nc1 [Example 192, (S)-2-((5-(2-methyl-4-(2-oxopyrrolidin-1-yl)phenyl)pyridin-2-yl)amino)-6,6a,7,8-tetrahydro-9H-pyrido[2,3-b]pyrrolo[1,2-d][1,4]oxazin-9-one] |
| 1 to 10 | 1 to 10 | 1 to 10 | COCc1nc(Nc2cnc3c(c2)N2C(=O)CC[C@H]2CO3)ncc1-c1ccc(N2CCCC2=O)cc1 [Example 197, (S)-2-((4-(methoxymethyl)-5-(4-(2-oxopyrrolidin-1-yl)phenyl)pyrimidin-2-yl)amino)-6,6a,7,8-tetrahydro-9H-pyrido[2,3-b]pyrrolo[1,2-d][1,4]oxazin-9-one] |
| ≤ 1 | 1 to 10 | 10 to 100 | CN(C)C(=O)c1ccc(-c2ccc(Nc3cncc(N4CCN(Cc5ccc(N)cc5)C4=O)c3)nc2)cc1 [Example 222, 4-(6-((5-(3-(4-aminobenzyl)-2-oxoimidazolidin-1-yl)pyridin-3-yl)amino)pyridin-3-yl)-N,N-dimethylbenzamide] |
| ≤ 1 | 1 to 10 | 10 to 100 | CN(C)C(=O)c1ccc(-c2ccc(Nc3cncc(N4CCN(Cc5cccc(N)c5)C4=O)c3)nc2)cc1 [Example 223, 4-(6-((5-(3-(3-aminobenzyl)-2-oxoimidazolidin-1-yl)pyridin-3-yl)amino)pyridin-3-yl)-N,N-dimethylbenzamide] |
| 1 to 10 | 1 to 10 | 10 to 100 | CN(C)C(=O)c1ccc(-c2ccc(Nc3cncc(N4CCN(Cc5cccc(NC(=O)CCc6cccc(N)c6)c5)C4=O)c3)nc2)cc1 [Example 224, 4-(6-((5-(3-(3-(3-(3-aminophenyl)propanamido)benzyl)-2-oxoimidazolidin-1-yl)pyridin-3-yl)amino)pyridin-3-yl)-N,N-dimethylbenzamide] |
| 1 to 10 | 10 to 100 | 10 to 100 | CN(C)C/C=C/C(=O)Nc1cccc(CCC(=O)Nc2cccc(CN3CCN(c4cncc(Nc5ccc(-c6ccc(C(=O)N(C)C)cc6)cn5)c4)C3=O)c2)c1 [Example 225, (E)-4-(6-((5-(3-(3-(3-(3-(4-(dimethylamino)but-2-enamido)phenyl)propanamido)benzyl)-2-oxoimidazolidin-1-yl)pyridin-3-yl)amino)pyridin-3-yl)-N,N-dimethylbenzamide] |
